Consider 17 molecules from patent publication US9365522B2, “Pyrazole amide derivative” (AMGEN INC., priority 2015, dated 2016).

The structures appear in SMILES notation.

The target of this assay is T1, ligand binding domain of human ROR gamma (Homo sapiens, UniProt P51449).
T1 construct: NM_001001523; expressed in transfected cells; host or cells: HEK293T
T1 sequence (P51449 247-497 isoform P51449-2): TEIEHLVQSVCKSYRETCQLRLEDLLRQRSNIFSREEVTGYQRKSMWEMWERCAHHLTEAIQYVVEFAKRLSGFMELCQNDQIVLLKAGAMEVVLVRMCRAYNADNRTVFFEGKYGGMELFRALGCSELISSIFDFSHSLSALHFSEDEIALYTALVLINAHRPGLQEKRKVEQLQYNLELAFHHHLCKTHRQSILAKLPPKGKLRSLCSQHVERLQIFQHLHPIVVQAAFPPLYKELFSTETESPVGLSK
Kind of assay: ROR gamma reporter gene assay (GAL4-RORγ LBD luciferase, Dual-Glo). In kind it is cell-based. Conditions: HEK293T cells transfected with pM-ROR gamma, 8 concentrations 3.5 nM to 10.5 μM, 24 h incubation; read-out: result (pIC50, inhibition of RORγ transcriptional activity) (converted). Put shortly: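 Transient GAL4-RORγ LBD (aa 247-497) / 5×UAS-luc / pRL-CMV cotransfection in HEK293T, charcoal-stripped 10% FBS. 8-pt dose, 3.5 nM–10.5 μM, 0.075% DMSO final. 24 h, 37 °C, 5% CO2. Dual-Glo firefly/renilla readout; pIC50 from curve fit.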
(In general: In a reporter assay the amount or activity of a reporter protein is the signal.)

Consider `CC1(C)CC(CN(CC(=O)c2c(Cl)cccc2C(F)(F)F)C(=O)c2cnn(C34CCC(C(=O)O)(CC3)CC4)c2C(F)(F)F)C1` [Example 258, 4-(4-((2-(2-chloro-6-(trifluoromethyl)phenyl)-2-oxoethyl)-((3,3-dimethylcyclobutyl)methyl)carbamoyl)-5-(trifluoromethyl)pyrazol-1-yl)bicyclo[2.2.2]octane-1-carboxylic acid], for which the IC50 was 6610 pM.

As to `COc1cccc(Cl)c1C(=O)CN(CC1CCC(C)(C)CC1)C(=O)c1cnn([C@H]2CC[C@](C)(C(=O)O)CC2)c1C(F)(F)F` [Example 259, trans-4-(4-((2-(2-chloro-6-methoxyphenyl)-2-oxoethyl)-((4,4-dimethylcyclohexyl)methyl)carbamoyl)-5-(trifluoromethyl)pyrazol-1-yl)-1-methylcyclohexane-1-carboxylic acid], the IC50 is 117000 pM.

On to `CC12CCC(CN(CC(=O)c3c(Cl)cc(Cl)cc3Cl)C(=O)c3cnn([C@H]4CC[C@](C)(C(=O)O)CC4)c3C(F)(F)F)(CC1)O2` [Example 260, trans-4-(4-((1-methyl-7-oxabicyclo[2.2.1]heptan-4-yl)methyl-(2-oxo-2-(2,4,6-trichlorophenyl)ethyl)carbamoyl)-5-(trifluoromethyl)pyrazol-1-yl)-1-methylcyclohexane-1-carboxylic acid], for which the IC50 is 6030 pM.

Take `Cc1cc(Cl)c(C(=O)CN(CC23CCC(C)(CC2)O3)C(=O)c2cnn(C34CCC(C(=O)O)(CC3)CC4)c2C(F)(F)F)c(Cl)c1` [Example 261, 4-(4-((2-(2,6-dichloro-4-methylphenyl)-2-oxoethyl)-((1-methyl-7-oxabicyclo[2.2.1]heptan-4-yl)methyl)carbamoyl)-5-(trifluoromethyl)pyrazol-1-yl)bicyclo[2.2.2]octane-1-carboxylic acid]: the IC50 was 4570 pM.

As for `O=C(CN(CC12CCC(CC1)O2)C(=O)c1cnn([C@H]2CC[C@H](C(=O)O)CC2)c1C(F)(F)F)c1c(Cl)cncc1Cl` [Example 262, trans-4-(4-((2-(3,5-dichloropyridin-4-yl)-2-oxoethyl)-(7-oxabicyclo[2.2.1]heptan-4-ylmethyl)carbamoyl)-5-(trifluoromethyl)pyrazol-1-yl)cyclohexane-1-carboxylic acid], the IC50 was 40700 pM.

Turning to `CC(C)(C)CN(CC(=O)c1c(Cl)cccc1C(F)(F)F)C(=O)c1cnn(C23CCC(C(=O)O)(CC2)CC3)c1C(F)(F)F` [Example 263, 4-(4-((2-(2-chloro-6-(trifluoromethyl)phenyl)-2-oxoethyl)-(2,2-dimethylpropyl)carbamoyl)-5-(trifluoromethyl)pyrazol-1-yl)bicyclo[2.2.2]octane-1-carboxylic acid], the IC50 was 5890 pM.

As to `CC1(C)[C@@H]2C[C@H](N(CC(=O)c3c(Cl)cncc3Cl)C(=O)c3cnn([C@H]4CC[C@H](C(=O)O)CC4)c3C(F)(F)F)C[C@@H]21` [Example 264, trans-4-(4-((2-(3,5-dichloropyridin-4-yl)-2-oxoethyl)-((1R,3r,5S)-6,6-dimethyl-3-bicyclo[3.1.0]hexanyl)carbamoyl)-5-(trifluoromethyl)pyrazol-1-yl)cyclohexane-1-carboxylic acid], the IC50 was 8130 pM.

Take `CC(C)(C)CN(CC(=O)c1c(Cl)cccc1C(F)(F)F)C(=O)c1cnn([C@H]2CC[C@](C)(C(=O)O)CC2)c1C(F)(F)F` [Example 265]: the IC50 was 18200 pM.

As for `CC1(C)CC(CN(CC(=O)c2c(Cl)cc(F)cc2Cl)C(=O)c2cnn(C34CCC(C(=O)O)(CC3)CC4)c2C(F)(F)F)C1` [Example 266, 4-(4-((2-(2,6-dichloro-4-fluorophenyl)-2-oxoethyl)-((3,3-dimethylcyclobutyl)methyl)carbamoyl)-5-(trifluoromethyl)pyrazol-1-yl)bicyclo[2.2.2]octane-1-carboxyIic acid], the IC50 is 5370 pM.

With `CC12CCC(CN(CC(=O)c3c(Cl)cncc3Cl)C(=O)c3cnn([C@H]4CC[C@](C)(C(=O)O)CC4)c3C(F)(F)F)(CC1)C2` [Example 267, trans-4-(4-((2-(3,5-dichloropyridin-4-yl)-2-oxoethyl)-((1-methyl-4-bicyclo[2.2.1]heptanyl)methyl)carbamoyl)-5-(trifluoromethyl)pyrazol-1-yl)-1-methylcyclohexane-1-carboxylic acid], the IC50 is 13500 pM.

Turning to `Cc1cc(Cl)cc(C)c1C(=O)CN(Cc1cc(F)cc(F)c1)C(=O)c1cnn([C@H]2CC[C@H](C(=O)O)CC2)c1C(F)(F)F` [Example 268, trans-4-(4-((2-(4-chloro-2,6-dimethylphenyl)-2-oxoethyl)-((3,5-difluorophenyl)methyl)carbamoyl)-5-(trifluoromethyl)pyrazol-1-yl)cyclohexane-1-carboxylic acid], the IC50 is 107000 pM.

`Cc1cc(C)c(C(=O)CN(Cc2cc(F)cc(F)c2)C(=O)c2cnn([C@H]3CC[C@H](C(=O)O)CC3)c2C(F)(F)F)c(Cl)c1` [Example 269, trans-4-(4-((2-(2-chloro-4,6-dimethylphenyl)-2-oxoethyl)-((3,5-difluorophenyl)methyl)carbamoyl)-5-(trifluoromethyl)pyrazol-1-yl)cyclohexane-1-carboxylic acid]: the IC50 was 8130 pM.

In the case of `C[C@]1(C(=O)O)CC[C@H](n2ncc(C(=O)N(CC(=O)c3c(Cl)cccc3C(F)(F)F)CC3(F)CCCC3)c2C(F)(F)F)CC1` [Example 270, trans-4-(4-((2-(2-chloro-6-(trifluoromethyl)phenyl)-2-oxoethyl)-((1-fluorocyclopentyl)methyl)carbamoyl)-5-(trifluoromethyl)pyrazol-1-yl)-1-methylcyclohexane-1-carboxylic acid], the IC50 was 16200 pM.

On to `O=C(CN(CC1(F)CCCC1)C(=O)c1cnn(C23CCC(C(=O)O)(CC2)CC3)c1C(F)(F)F)c1c(Cl)cc(F)cc1Cl` [Example 271, 4-(4-((2-(2,6-dichloro-4-fluorophenyl)-2-oxoethyl)-((1-fluorocyclopentyl)methyl)carbamoyl)-5-(trifluoromethyl)pyrazol-1-yl)bicyclo[2.2.2]octane-1-carboxylic acid], for which the IC50 is 5130 pM.

Turning to `C[C@]1(C(=O)O)CC[C@H](n2ncc(C(=O)N(CC(=O)c3c(Cl)cncc3Cl)CC3(F)CCCC3)c2C(F)(F)F)CC1` [Example 272, trans-4-(4-((2-(3,5-dichloropyridin-4-yl)-2-oxoethyl)-((1-fluorocyclopentyl)methyl)carbamoyl)-5-(trifluoromethyl)pyrazol-1-yl)-1-methylcyclohexane-1-carboxylic acid], the IC50 is 11200 pM.

As for `CC1(C)CCC(N(CC(=O)c2c(Cl)cc(F)cc2Cl)C(=O)c2cnn(C34CCC(C(=O)O)(CC3)CC4)c2C(F)F)CC1` [Example 273, 4-(4-((2-(2,6-dichloro-4-fluorophenyl)-2-oxoethyl)-(4,4-dimethylcyclohexyl)carbamoyl)-5-(difluoromethyl)pyrazol-1-yl)bicyclo[2.2.2]octane-1-carboxylic acid], the IC50 was 14100 pM.

`CC12CCC(CN(CC(=O)c3c(Cl)cc(F)cc3Cl)C(=O)c3cnn([C@H]4CC[C@](C)(C(=O)O)CC4)c3C(F)(F)F)(CC1)C2` [Example 274, trans-4-(4-((2-(2,6-dichloro-4-fluorophenyl)-2-oxoethyl)-((1-methyl-4-bicyclo[2.2.1]heptanyl)methyl)carbamoyl)-5-(trifluoromethyl)pyrazol-1-yl)-1-methylcyclohexane-1-carboxylic acid]: the IC50 is 8320 pM.
